Reference: patent US20230265094A1, “RIPK1 INHIBITORS AND METHODS OF USE” (Merck Sharp & Dohme LLC, priority 2020, published 2023)
Counter-ions that a name gives are not always drawn.

What follows are compounds tested against T1, RIPK1 (Homo sapiens, UniProt Q13546) (assay: RIPK1-ADP-Glo enzymatic assay). Details: ADP-Glo luminescent ADP detection; 25 nM GST-RIPK1 kinase domain (residues 1-327), 300 μM ATP, dephosphorylated-MBP substrate; 30 min pre-incubation, 150 min reaction.
T1 construct: recombinant GST-RIPK1 kinase domain (residues 1-327) enzyme produced from baculovirus-transfected Sf21 cells; host or cells: baculovirus-transfected Sf21 insect cells
T1 sequence (Q13546 1-327): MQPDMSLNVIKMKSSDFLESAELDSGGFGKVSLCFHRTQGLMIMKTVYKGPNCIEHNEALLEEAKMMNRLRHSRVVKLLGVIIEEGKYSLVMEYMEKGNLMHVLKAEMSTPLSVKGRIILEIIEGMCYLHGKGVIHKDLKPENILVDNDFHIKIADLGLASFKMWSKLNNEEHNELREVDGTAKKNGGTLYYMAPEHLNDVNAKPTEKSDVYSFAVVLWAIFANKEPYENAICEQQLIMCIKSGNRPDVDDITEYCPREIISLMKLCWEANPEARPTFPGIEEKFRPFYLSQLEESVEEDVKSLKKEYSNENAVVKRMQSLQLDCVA
Format: biochemical
Method in brief: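 GST-RIPK1 kinase domain (residues 1-327, Sf21-expressed), 25 nM final, pre-incubated 30 min with compound (10-point 1:3 series from 100000 nM), then reacted 150 min with 300 μM ATP and 3 μM dephosphorylated MBP in HEPES pH 7.3 buffer. ADP read by ADP-Glo luminescence; EC50 from four-parameter fit.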

Row | EC50 [nM] | SMILES
1 | 5160 | CC(C)C1(O)CN(C(=O)N2N=CC[C@H]2c2ccc(Cl)cc2)C1 [Example 2.7, (S)-(5-(4-chlorophenyl)-4,5-dihydro-1H-pyrazol-1-yl)(3-hydroxy-3-isopropylazetidin-1-yl)methanone]
2 | 26.3 | N#Cc1ccc(OC2CN(C(=O)N3N=CC[C@H]3c3cc(F)cc(F)c3)C2)cn1 [Example 1.61, (S)-5-((1-(5-(3,5-difluorophenyl)-4,5-dihydro-1H-pyrazole-1-carbonyl)azetidin-3-yl)oxy)picolinonitrile]
3 | 988 | O=C(N1CC(O)(C(F)(F)F)C1)N1N=CC[C@H]1c1cc(F)cc(F)c1 [Example 1.27, (S)-(5-(3,5-difluorophenyl)-4,5-dihydro-1H-pyrazol-1-yl)(3-hydroxy-3-(trifluoromethyl)azetidin-1-yl)methanone]
4 | 3590 | CC1(O)CN(C(=O)N2N=CC[C@H]2c2cc(F)cc(F)c2)C1 [Example 1.28, (S)-(5-(3,5-difluorophenyl)-4,5-dihydro-1H-pyrazol-1-yl)(3-hydroxy-3-methylazetidin-1-yl)methanone]
5 | 5000 | O=C(N1CC(Oc2ccccc2)C1)N1N=CC[C@@H]1c1ccccc1 (single isomer, unassigned) [Example 2.4]
6 | 20.5 | C[C@H]1[C@@H](Oc2ccnc(C#N)c2)CN1C(=O)N1N=CC[C@H]1c1cc(F)cc(F)c1 [Example 2.36, 4-(((25,3S)-1-((S)-5-(3,5-difluorophenyl)-4,5-dihydro-1H-pyrazole-1-carbonyl)-2-methylazetidin-3-yl)oxy)picolinonitrile]
7 | 9.6 | O=C(N1CC(Oc2ccccc2)C1)N1N=CC[C@H]1c1ccc(Cl)cc1 [Example 2.6, (S)-(5-(4-chlorophenyl)-4,5-dihydro-1H-pyrazol-1-yl)(3-phenoxyazetidin-1-yl)methanone]
8 | 28.6 | O=C(N1CC(c2cccnc2)C1)N1N=CC[C@H]1c1cc(F)cc(F)c1 [Example 1.42, (S)-(5-(3,5-difluorophenyl)-4,5-dihydro-1H-pyrazol-1-yl)(3-(pyridin-3-yl)azetidin-1-yl)methanone, TFA salt]
9 | 14.2 | Cc1ncc([C@@H]2CC=NN2C(=O)N2CC(C)(Oc3ccc(F)cc3)C2)cc1F [Example 2.30, (S)-(5-(5-fluoro-6-methylpyridin-3-yl)-4,5-dihydro-1H-pyrazol-1-yl)(3-(4-fluorophenoxy)-3-methylazetidin-1-yl)methanone]
10 | 9.7 | CC1(Oc2ccccc2)CN(C(=O)N2N=CCC2c2cc(F)cc(F)c2)C1 (racemic) [Example 1.2, (R and S)-(5-(3,5-difluorophenyl)-4,5-dihydro-1H-pyrazol-1-yl)(3-methyl-3-phenoxyazetidin-1-yl)methanone, TFA salt]
11 | 64.5 | O=C(N1CCC1)N1N=CC[C@H]1c1cc(F)cc(F)c1 [Example 1.60, (S)-azetidin-1-yl(5-(3,5-difluorophenyl)-4,5-dihydro-1H-pyrazol-1-yl)methanone]
12 | 0.5 | O=C(N1CC(Oc2ccccc2)C1)N1N=CC[C@H]1c1ccccc1 (single isomer, unassigned) [Example 2.5]
13 | 92.7 | O=C(N1CC(Oc2ccccc2)C1)N1N=CC[C@H]1C12CCC(CC1)C2 [Example 2.16, ((5S)-5-(bicyclo[2.2.1]heptan-1-yl)-4,5-dihydro-1H-pyrazol-1-yl)(3-phenoxyazetidin-1-yl)methanone]
14 | 19.8 | CC1(Oc2ccc(F)cc2)CN(C(=O)N2N=CC[C@H]2c2cc(F)cc(F)c2)C1 [Example 2.33, (S)-(5-(3,5-difluorophenyl)-4,5-dihydro-1H-pyrazol-1-yl)(3-(4-fluorophenoxy)-3-methylazetidin-1-yl)methanone]
15 | 325 | O=C(N1CC(c2ncccn2)C1)N1N=CC[C@H]1c1cc(F)cc(F)c1 [Example 1.18, (S)-(5-(3,5-difluorophenyl)-4,5-dihydro-1H-pyrazol-1-yl)(3-(pyrimidin-2-yl)azetidin-1-yl)methanone]
16 | 6.1 | O=C(N1CC(Cc2ccccc2)C1)N1N=CC[C@H]1c1cc(F)cc(F)c1 [Example 1.14, (S)-(3-benzylazetidin-1-yl)(5-(3,5-difluorophenyl)-4,5-dihydro-1H-pyrazol-1-yl)methanone, TFA salt]
17 | 2460 | O=C(N1CC(O)(C2CC2)C1)N1N=CC[C@H]1c1cc(F)cc(F)c1 [Example 1.34, (S)-(3-cyclopropyl-3-hydroxyazetidin-1-yl)(5-(3,5-difluorophenyl)-4,5-dihydro-1H-pyrazol-1-yl)methanone]
18 | 578 | O=C(N1CC(O)(C(F)(F)F)C1)N1N=CC[C@H]1c1ccc(Cl)cc1 [Example 2.11, (S)-(5-(4-chlorophenyl)-4,5-dihydro-1H-pyrazol-1-yl)(3-hydroxy-3-(trifluoromethyl)azetidin-1-yl)methanone]
19 | 12.8 | O=C(N1CC(Oc2cccnc2)C1)N1N=CC[C@H]1c1cc(F)cc(F)c1 [Example 1.7, (S)-(5-(3,5-difluorophenyl)-4,5-dihydro-1H-pyrazol-1-yl)(3-(pyridin-3-yloxy)azetidin-1-yl)methanone, TFA salt]
20 | 10.6 | CC(C)OC1CN(C(=O)N2N=CC[C@H]2c2ccc(Cl)cc2)C1 [Example 2.12, (S)-(5-(4-chlorophenyl)-4,5-dihydro-1H-pyrazol-1-yl)(3-isopropoxyazetidin-1-yl)methanone]
21 | 11.4 | C[C@@H]1[C@@H](Oc2ccc(F)cc2)CN1C(=O)N1N=CC[C@H]1c1cncc(C#N)c1 [Example 2.24, 5-((S)-1-((2R,3S)-3-(4-fluorophenoxy)-2-methylazetidine-1-carbonyl)-4,5-dihydro-1H-pyrazol-5-yl)nicotinonitrile]
22 | 12.7 | CC1(Oc2ccc(F)cc2)CN(C(=O)N2N=CC[C@H]2c2ccc(Cl)cc2)C1 [Example 2.34, (S)-(5-(4-chlorophenyl)-4,5-dihydro-1H-pyrazol-1-yl)(3-(4-fluorophenoxy)-3-methylazetidin-1-yl)methanone]
23 | 5.9 | C[C@@H]1[C@@H](Oc2ccc(F)cc2)CN1C(=O)N1N=CC[C@H]1c1ccc(Cl)cc1 [Example 2.28, ((S)-5-(4-chlorophenyl)-4,5-dihydro-1H-pyrazol-1-yl)((2R,3S)-3-(4-fluorophenoxy)-2-methylazetidin-1-yl)methanone]
24 | 11 | COC1CN(C(=O)N2N=CC[C@H]2c2cc(F)cc(F)c2)C1 [Example 2.1, (S)-(5-(3,5-difluorophenyl)-4,5-dihydro-1H-pyrazol-1-yl)(3-methoxyazetidin-1-yl)methanone]
25 | 5150 | O=C(N1CC2(C1)CN(c1cnccn1)C2)N1N=CC[C@H]1c1cc(F)cc(F)c1 [Example 1.35, (S)-(5-(3,5-difluorophenyl)-4,5-dihydro-1H-pyrazol-1-yl)(6-(pyrazin-2-yl)-2,6-diazaspiro[3.3]heptan-2-yl)methanone]
26 | 62.3 | CC1(C#N)CN(C(=O)N2N=CC[C@H]2c2cc(F)cc(F)c2)C1 [Example 1.36, (S)-1-(5-(3,5-difluorophenyl)-4,5-dihydro-1H-pyrazole-1-carbonyl)-3-methylazetidine-3-carbonitrile]
27 | 104 | C[C@H]1[C@H](Oc2ccccc2)CN1C(=O)N1N=CC[C@H]1c1cc(F)cc(F)c1 (single isomer, unassigned) [Example 1.9, ((S)-5-(3,5-difluorophenyl)-4,5-dihydro-1H-pyrazol-1-yl)((2S,3R or 2R,3S)-2-methyl-3-phenoxyazetidin-1-yl)methanone, TFA salt]
28 | 10.1 | Cc1ncc([C@@H]2CC=NN2C(=O)N2C[C@H](Oc3ccc(F)cc3)[C@H]2C)cc1F [Example 2.23, ((S)-5-(5-fluoro-6-methylpyridin-3-yl)-4,5-dihydro-1H-pyrazol-1-yl)((2R,3S)-3-(4-fluorophenoxy)-2-methylazetidin-1-yl)methanone]
